Experimental findings from article PMC8280143, “A novel dephosphorylation targeting chimera selectively promoting tau removal in tauopathies” (Signal Transduction and Targeted Therapy, 2021) are described below.

In one data set the test system is MAP2. The data set can be described thus: MAP2 level in primary neurons. Type of data set: cell-based. On the procedure:
Cultured cells or hippocampus tissues were collected on ice, and homogenized with RIPA lysis buffer containing 50 mM Tris-HCl, 100 mM NaCl, 1% Triton X-100, 5 mM EDTA, and 1:100 PMSF, and then centrifuged at 12,000 × g for 20 min. The supernatant was collected for the analysis of soluble proteins. In some experiments, the pellets were further incubated with 8% SDS buffer at 37 °C and then ultrasound for 60 times to reach a complete resuspension for the analysis of insoluble tau. Protein concentration was measured through BCA assays (Thermo Fisher). Equal amount of protein from each sample were separated in SDS-PAGE gels, and then transferred onto nitrocellulose or 0.22 μm polyvinylidene fluoride membranes (Merck Millipore). […] Blots were visualized using ECL luminol reagent (P0018FS, Beyotime), and quantified using ImageJ software.

Data set [1] has as its system human tau N-terminal 1–368 fragment (hTau-N368). Kind of data set: Hippocampal phosphorylated and total tau in dox-treated Tau368 mice. Type of data set: in vivo, mouse. As to the method: Mice weighting 20–30 g were anesthetized with 1% pentobarbital sodium (35 mg/kg), and fixed in a stereotaxic instrument (RWD). The scalp was sterilized with iodophors and 75% ethanol, and incised along the skull midline. Holes were drilled. Adeno-associated virus or DEPTAC was injected into the dorsal DG (posterior 1.9 mm, lateral ±1.1 mm from the bregma, ventral −2.0 from the skull) or lateral ventricle (posterior 0.22 mm, lateral ±1.0 mm from the bregma, ventral −2.5 from the skull), respectively, using an automatic microinjection system (World Precision Instruments, USA) at a rate of 0.05 μL/min. The needle syringe was left in place for 5 min before withdrawal. The skin was sutured and sterilized with iodophors. Mice were placed on thermos tank for analepsia.
For 2-month male C57BL/6 mice, 10 mM FITC-labeled or unlabeled-DEPTAC were directly injected through the tail vein or lateral ventricle for the evaluation of BBB-penetrability. For 9-month 3×Tg AD mice or Tau368 (20–30 g body weight), unlabeled-DEPTAC (5 mM, 1 μL for each time) was delivered for once into the lateral ventricle through direct stereotaxic injection, or repeatedly administrated through guiding cannulas (RWD, Shenzhen, China) implanted into the lateral ventricle once every 3 days for a consecutive month to test its dephosphorylation efficiency. Mice were restricted in a custom designed device and stayed awake during drug administration, and sacrificed at 24 h post the single or last DEPTAC administration.
Cultured cells or hippocampus tissues were collected on ice, and homogenized with RIPA lysis buffer containing 50 mM Tris-HCl, 100 mM NaCl, 1% Triton X-100, 5 mM EDTA, and 1:100 PMSF, and then centrifuged at 12,000 × g for 20 min. The supernatant was collected for the analysis of soluble proteins. In some experiments, the pellets were further incubated with 8% SDS buffer at 37 °C and then ultrasound for 60 times to reach a complete resuspension for the analysis of insoluble tau. Protein concentration was measured through BCA assays (Thermo Fisher). Equal amount of protein from each sample were separated in SDS-PAGE gels, and then transferred onto nitrocellulose or 0.22 μm polyvinylidene fluoride membranes (Merck Millipore). The membranes were blocked with 5% BSA, and incubated in turn with primary and horseradish peroxidase-conjugated secondary antibodies: pS199-Tau (44734G, Invitrogen, 1:2000), pT205-Tau (11108-1, Signalway, 1:2000), pS396-Tau (11102, Signalway, 1:2000), pS404-Tau (11112, Signalway, 1:2000), AT8 (MN1020, Thermo Fisher, 1:1000), Tau5 (ab80579, Abcam, 1:1000), Tau46 (T9450, Sigma, 1:1000), PP2A-Bα (4953, Cell signaling, 1:1000), Phospho-Ser/Thr (ab17464, Abcam1:1000), Ubiquitin (ab7254, Abcam, 1:1000), MAP2 (AB5622, Millipore, 1:2000), hTau-N368 (a generous gift from Prof. Keqiang Ye, Emory University School of Medicine, 1:1000), DEPTAC (developed by Daian Biotechnology, Wuhan, China, 1:500), β-actin (ab6276, Abcam, 1:2000). HRP-conjugated goat anti-rabbit IgG (A0208, Beyotime, 1:3000), HRP-conjugated goat anti-mouse IgG (A0216, Beyotime, 1:3000). Blots were visualized using ECL luminol reagent (P0018FS, Beyotime), and quantified using ImageJ software.

The next data set has as its system Tau368 mice. Kind of data set: Morris water maze test. Type of data set: in vivo, mouse. From the text:
Morris water maze tests began 3 days after the novel-object recognition tests. Briefly, mice were trained to find a hidden platform submerged under water in a Morris water maze (1.2 m in diameter) for five consecutive days with three trials per day. Visual cues outside the pool remained constant. In each trial, mice were pseudorandomly placed, facing the pool wall, in one of the three quadrants without platform and allowed to freely seek the hidden platform within 60 s. […] The traveling path of each mouse was recorded and analyzed online using an MWZ-100 video-tracking system (Techman, China). At day 6, each mouse was tested for 60 s in the water maze with the hidden platform removed. Videos were recorded using recorded and time of mice stayed in, and number of entries into the target quadrant previously place the platform were analyzed using MWZ-100 and ANY-maze video tracking system (Stoelting).

The mark [2] stands for this setting: DEPTAC for a consecutive month after stopping dox, **p < 0.01, n = 3 mice.
[3] abbreviates: dox kept on, DEPTAC i.c.v. by guiding cannula once every three days for a consecutive month, 10 μg total protein, *p < 0.05, n = 3–4.
Where [4] appears, read: hippocampus of Tau368 mice, 24 h of post-DEPTAC administration.
Where [5] appears, read: dox-treated Tau368 mice, day 6, platform removed, *p < 0.05.

“Also recorded” adds a separate entry of the source.

Take “(1) YQQYQDATADEQG, originates from the porcine β-tubulin 422–434 for recognizing and binding tau proteins.[5],[6] (2) GSGS, a linker for increasing the flexibility of the peptide.[15] (3) KKVAVVRTPPKSP, for recruiting PP2A-Bα,[16] and (4) RRRRRRRR [DEPTAC, DEPhosphorylation TArgeting Chimera; 38 amino acid residues, C185H314N72O56]”: the “level of MAP2” value in the data set with MAP2 (Supplementary Fig. S3, specificity to tau) is recorded as “did not change”. The “selectivity to tau proteins” value with MAP2 (discussion) is “considerable selectivity to tau proteins”. In addition, in data set [1] (setting [2]), the “hippocampal phospho-tau after stopping the dox” value is given as “reduced; also recorded: downregulated” and the “hippocampal total tau after stopping the dox” value is reported as “reduced; also recorded: downregulated”. In addition, the “degree of tau reduction by DEPTAC” value in data set [1] (discussion, compared with tau knock-out or siRNA knock-down) is “far less than tau knock-out or siRNA-mediated knock-down”. Further, in data set [1] (setting [3]), the “hippocampal phospho-tau, dox kept on” value was “significantly reduced; also recorded: effectively facilitated the dephosphorylation” and the “hippocampal total tau, dox kept on” value was “significantly reduced; also recorded: effectively facilitated the dephosphorylation as well as the degradation of tau”. Moreover, the hippocampal phosphorylated tau entry in data set [1] (dox-treated Tau368 mice, 5 mM, i.c.v., for a consecutive month / for once, 12–72 h post injection, n = 3–4) was “effective in reducing; also recorded: reduced phosphorylated and total tau prominently”. Moreover, in data set [1] (setting [4]), the “RIPA lysis buffer-insoluble tau” value is on record as “tend to be decreased” and the “RIPA lysis buffer-soluble tau” value is given as “tend to be decreased”. Moreover, the “spatial learning and memory in control mice” value in the data set on Tau368 mice (control mice without human tau accumulation (NW)) is listed as “only limitedly affected; also recorded: did not statistically change”. Moreover, the “spatial learning deficit in Morris water maze” value in the data set with Tau368 mice (dox-treated Tau368 mice, **p < 0.01, *p < 0.05) is given as “rescued; also recorded: significantly alleviated”. In addition, in the data set with Tau368 mice (dox-treated Tau368 mice, day 6, platform removed), the “spatial memory impairment in Morris water maze” value is “rescued; also recorded: attenuated”. Besides, in the data set with Tau368 mice (setting [5]), the “number of entries into the target quadrant” value is “increased” and the “time staying in the target quadrant” value is reported as “increased”.
